# According to publication PMC6887723, “Design and Synthesis of 4-(Heterocyclic Substituted Amino)-1H-Pyrazole-3-Carboxamide Derivatives and Their Potent Activity against Acute Myeloid Leukemia (AML)” (International Journal of Molecular Sciences, 2019):
# Tests used:
# CDK2 = target: T1, CDK2 (Homo sapiens, UniProt P24941); assay: CDK2 kinase activity assay (Hot-Spot); assay type: biochemical; conditions: 10 μM ATP; mean ± SD, three independent experiments
# T1 construct: purchased Reaction Biology Corp
# Description: (§1) Activities of kinases were determined using Hot-SpotSM kinase assay which was performed by Reaction Biology Corp. (Malvern PA, USA) as described previously.
# FLT3 = target: T2, FLT3 (Homo sapiens, UniProt P36888); assay: FLT3 kinase activity assay (Hot-Spot); assay type: biochemical; conditions: 10 μM ATP; mean ± SD, three independent experiments
# T2 construct: purchased Reaction Biology Corp
# T2 sequence (P36888 27-993): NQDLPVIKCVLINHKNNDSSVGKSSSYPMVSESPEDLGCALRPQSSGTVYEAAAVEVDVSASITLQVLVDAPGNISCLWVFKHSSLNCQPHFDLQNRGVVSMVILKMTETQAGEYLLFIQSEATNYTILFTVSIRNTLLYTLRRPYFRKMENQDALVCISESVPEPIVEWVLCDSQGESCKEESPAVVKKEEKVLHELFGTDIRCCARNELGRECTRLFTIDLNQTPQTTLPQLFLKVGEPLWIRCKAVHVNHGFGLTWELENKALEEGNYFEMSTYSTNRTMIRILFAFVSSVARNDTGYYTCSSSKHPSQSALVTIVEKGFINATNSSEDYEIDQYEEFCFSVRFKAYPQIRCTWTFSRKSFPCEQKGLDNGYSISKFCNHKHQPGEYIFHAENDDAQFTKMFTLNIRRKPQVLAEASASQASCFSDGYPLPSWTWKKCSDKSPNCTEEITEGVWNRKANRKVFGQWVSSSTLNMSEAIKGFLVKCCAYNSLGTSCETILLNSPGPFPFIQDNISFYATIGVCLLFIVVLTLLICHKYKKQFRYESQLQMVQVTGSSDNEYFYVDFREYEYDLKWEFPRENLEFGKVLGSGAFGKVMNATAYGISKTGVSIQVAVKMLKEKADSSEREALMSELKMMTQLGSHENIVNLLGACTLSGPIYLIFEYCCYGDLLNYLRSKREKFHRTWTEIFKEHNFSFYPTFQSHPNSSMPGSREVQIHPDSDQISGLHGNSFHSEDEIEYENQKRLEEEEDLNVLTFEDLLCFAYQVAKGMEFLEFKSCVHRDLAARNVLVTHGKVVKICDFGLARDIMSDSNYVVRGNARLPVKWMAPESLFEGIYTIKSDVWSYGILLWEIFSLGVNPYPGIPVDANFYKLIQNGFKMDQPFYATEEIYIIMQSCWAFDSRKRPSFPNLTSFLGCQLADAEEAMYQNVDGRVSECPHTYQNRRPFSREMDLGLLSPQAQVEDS
# Description: as §1
# MV4-11 = assay: Cell growth inhibition assay (CellTiter-Glo); assay type: cell-based; conditions: Homo sapiens, 72 h, highest test concentration 1 μM, mean ± SD, three independent experiments
# Description: The human AML cell line MV4-11 was purchased from the American Type Culture Collection (ATCC) (Manassas, VA, USA). MV4-11 was cultured in IMDM media (Corning, Crown Bioscience Inc., Taicang, China) with 10% FBS and supplemented with 2% L-glutamine and 1% pen/strep. The MV4-11 cell line was maintained in culture media at 37 °C with 5% CO2. The effects of target compounds on MV4-11 proliferation was performed by Crown Bioscience Inc. Cells were grown in 96-well culture plates (10,000/well). The compounds of various concentrations were added into the plates. Cell proliferation was determined after treatment with compounds for 72 h. Cell viability was measured using the CellTiter-Glo assay (Promega, Crown Bioscience Inc., Taicang, China) according to the manufacturer’s instructions, and luminescence was measured in a multilabel reader (Envision2014, PerkinElmer, Crown Bioscience Inc., Taicang, China). Data were normalized to the control group (DMSO) and represented by the mean of three independent measurements with standard error of <20%. IC50 values were calculated using Prism 5.0 (GraphPad Software, San Diego, CA, USA).
# Aurora B = target: T3, Aurora B (Homo sapiens, UniProt Q96GD4); assay: Hot-Spot kinase profiling; assay type: biochemical; conditions: read-out: % Enzyme Activity (Relative to DMSO Controls) Aurora B
# T3 construct: purchased Reaction Biology Corp. (HotSpot kinase assay)
# T3 sequence (Q96GD4 whole entry): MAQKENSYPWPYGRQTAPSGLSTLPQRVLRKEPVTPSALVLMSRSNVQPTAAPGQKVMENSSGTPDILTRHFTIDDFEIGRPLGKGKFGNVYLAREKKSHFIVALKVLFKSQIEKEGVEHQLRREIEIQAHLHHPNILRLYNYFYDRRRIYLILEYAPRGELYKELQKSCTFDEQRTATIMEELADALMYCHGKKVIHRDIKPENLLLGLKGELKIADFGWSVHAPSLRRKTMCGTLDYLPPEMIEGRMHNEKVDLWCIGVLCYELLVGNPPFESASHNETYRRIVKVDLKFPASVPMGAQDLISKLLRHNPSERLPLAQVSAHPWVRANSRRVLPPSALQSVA
# Description: as §1
# CDK9/cyclin K = target: T4, CDK9/cyclin K (Homo sapiens, UniProt P50750); assay: Hot-Spot kinase profiling; assay type: biochemical
# T4 construct: purchased Reaction Biology Corp
# T4 sequence (P50750 whole entry): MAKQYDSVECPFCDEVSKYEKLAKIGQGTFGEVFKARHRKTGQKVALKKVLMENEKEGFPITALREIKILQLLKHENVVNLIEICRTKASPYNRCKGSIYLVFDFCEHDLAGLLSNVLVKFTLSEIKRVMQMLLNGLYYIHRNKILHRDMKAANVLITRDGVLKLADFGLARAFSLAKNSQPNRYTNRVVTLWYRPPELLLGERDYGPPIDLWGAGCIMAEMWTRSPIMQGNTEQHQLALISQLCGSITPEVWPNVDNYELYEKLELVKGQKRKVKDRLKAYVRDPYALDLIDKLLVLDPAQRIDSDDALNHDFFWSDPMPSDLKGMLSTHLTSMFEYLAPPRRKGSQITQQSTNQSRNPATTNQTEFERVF
# T4 sequence (O75909 whole entry partner): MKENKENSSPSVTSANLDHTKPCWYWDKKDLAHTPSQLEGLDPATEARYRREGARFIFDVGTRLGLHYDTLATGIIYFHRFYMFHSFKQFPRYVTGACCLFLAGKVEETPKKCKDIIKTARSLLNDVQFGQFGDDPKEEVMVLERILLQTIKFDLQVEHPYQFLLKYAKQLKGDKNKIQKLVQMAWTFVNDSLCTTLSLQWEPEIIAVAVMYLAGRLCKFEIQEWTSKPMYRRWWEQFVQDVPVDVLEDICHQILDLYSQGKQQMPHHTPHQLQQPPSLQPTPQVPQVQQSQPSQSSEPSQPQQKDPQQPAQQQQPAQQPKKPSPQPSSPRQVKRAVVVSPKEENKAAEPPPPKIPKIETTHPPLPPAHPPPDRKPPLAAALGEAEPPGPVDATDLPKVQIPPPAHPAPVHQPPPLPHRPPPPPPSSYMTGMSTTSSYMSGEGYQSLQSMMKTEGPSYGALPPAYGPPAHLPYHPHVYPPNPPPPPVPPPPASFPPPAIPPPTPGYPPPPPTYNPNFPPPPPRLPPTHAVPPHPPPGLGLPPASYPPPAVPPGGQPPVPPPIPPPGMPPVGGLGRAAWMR
# Description: as §1
# FLT1/VEGFR1 = target: T5, FLT1/VEGFR1 (Homo sapiens, UniProt P17948); assay: Hot-Spot kinase profiling; assay type: biochemical
# T5 construct: purchased Reaction Biology Corp
# T5 sequence (P17948 27-1338): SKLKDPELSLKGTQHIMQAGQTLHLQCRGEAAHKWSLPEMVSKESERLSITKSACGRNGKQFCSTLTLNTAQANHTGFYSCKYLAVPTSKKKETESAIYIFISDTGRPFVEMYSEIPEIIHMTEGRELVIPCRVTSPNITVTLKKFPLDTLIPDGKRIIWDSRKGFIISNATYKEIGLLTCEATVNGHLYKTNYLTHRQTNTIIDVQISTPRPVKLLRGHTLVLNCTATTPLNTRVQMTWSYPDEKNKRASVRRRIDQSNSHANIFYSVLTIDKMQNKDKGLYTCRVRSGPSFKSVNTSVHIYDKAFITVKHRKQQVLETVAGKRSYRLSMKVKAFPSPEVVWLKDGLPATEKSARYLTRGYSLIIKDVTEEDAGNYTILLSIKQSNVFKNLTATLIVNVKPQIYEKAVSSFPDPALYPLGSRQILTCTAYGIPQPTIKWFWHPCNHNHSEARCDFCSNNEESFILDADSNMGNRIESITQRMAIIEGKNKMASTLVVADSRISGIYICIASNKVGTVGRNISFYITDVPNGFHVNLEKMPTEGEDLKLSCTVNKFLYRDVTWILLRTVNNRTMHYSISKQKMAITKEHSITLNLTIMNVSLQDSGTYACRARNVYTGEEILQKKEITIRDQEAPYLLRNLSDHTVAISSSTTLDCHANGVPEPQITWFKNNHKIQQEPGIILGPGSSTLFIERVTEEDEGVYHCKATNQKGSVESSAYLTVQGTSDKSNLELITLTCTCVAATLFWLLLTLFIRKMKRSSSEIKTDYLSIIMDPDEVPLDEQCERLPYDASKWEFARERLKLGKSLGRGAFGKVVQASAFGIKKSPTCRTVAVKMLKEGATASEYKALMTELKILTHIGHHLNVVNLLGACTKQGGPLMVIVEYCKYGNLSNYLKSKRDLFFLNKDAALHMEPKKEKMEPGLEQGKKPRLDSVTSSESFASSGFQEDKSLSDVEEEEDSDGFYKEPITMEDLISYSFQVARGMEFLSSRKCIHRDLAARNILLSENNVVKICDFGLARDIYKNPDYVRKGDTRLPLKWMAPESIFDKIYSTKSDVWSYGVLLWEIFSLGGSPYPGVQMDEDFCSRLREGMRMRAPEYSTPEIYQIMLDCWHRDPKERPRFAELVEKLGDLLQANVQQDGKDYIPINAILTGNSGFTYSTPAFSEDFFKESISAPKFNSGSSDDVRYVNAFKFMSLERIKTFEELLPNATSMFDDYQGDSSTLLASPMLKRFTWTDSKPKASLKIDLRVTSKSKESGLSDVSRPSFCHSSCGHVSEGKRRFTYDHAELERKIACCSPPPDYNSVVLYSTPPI
# Description: as §1
# FLT3 (D835Y) = target: T6, FLT3 (D835Y) (Homo sapiens, UniProt P36888, D835Y); assay: Hot-Spot kinase profiling; assay type: biochemical
# T6 construct: purchased Reaction Biology Corp
# Description: as §1
# FLT3 (ITD)-F691L = FLT3 (ITD)-F691L (Homo sapiens, UniProt P36888, F691L/ITD); assay: Hot-Spot kinase profiling; assay type: biochemical; conditions: Table 5 kinase profiling
# Description: as §1
# FMS = target: T7, FMS (Homo sapiens, UniProt P07333); assay: Hot-Spot kinase profiling; assay type: biochemical; conditions: read-out: % Enzyme Activity (Relative to DMSO Controls) FMS
# T7 construct: purchased Reaction Biology Corp
# T7 sequence (P07333 20-972): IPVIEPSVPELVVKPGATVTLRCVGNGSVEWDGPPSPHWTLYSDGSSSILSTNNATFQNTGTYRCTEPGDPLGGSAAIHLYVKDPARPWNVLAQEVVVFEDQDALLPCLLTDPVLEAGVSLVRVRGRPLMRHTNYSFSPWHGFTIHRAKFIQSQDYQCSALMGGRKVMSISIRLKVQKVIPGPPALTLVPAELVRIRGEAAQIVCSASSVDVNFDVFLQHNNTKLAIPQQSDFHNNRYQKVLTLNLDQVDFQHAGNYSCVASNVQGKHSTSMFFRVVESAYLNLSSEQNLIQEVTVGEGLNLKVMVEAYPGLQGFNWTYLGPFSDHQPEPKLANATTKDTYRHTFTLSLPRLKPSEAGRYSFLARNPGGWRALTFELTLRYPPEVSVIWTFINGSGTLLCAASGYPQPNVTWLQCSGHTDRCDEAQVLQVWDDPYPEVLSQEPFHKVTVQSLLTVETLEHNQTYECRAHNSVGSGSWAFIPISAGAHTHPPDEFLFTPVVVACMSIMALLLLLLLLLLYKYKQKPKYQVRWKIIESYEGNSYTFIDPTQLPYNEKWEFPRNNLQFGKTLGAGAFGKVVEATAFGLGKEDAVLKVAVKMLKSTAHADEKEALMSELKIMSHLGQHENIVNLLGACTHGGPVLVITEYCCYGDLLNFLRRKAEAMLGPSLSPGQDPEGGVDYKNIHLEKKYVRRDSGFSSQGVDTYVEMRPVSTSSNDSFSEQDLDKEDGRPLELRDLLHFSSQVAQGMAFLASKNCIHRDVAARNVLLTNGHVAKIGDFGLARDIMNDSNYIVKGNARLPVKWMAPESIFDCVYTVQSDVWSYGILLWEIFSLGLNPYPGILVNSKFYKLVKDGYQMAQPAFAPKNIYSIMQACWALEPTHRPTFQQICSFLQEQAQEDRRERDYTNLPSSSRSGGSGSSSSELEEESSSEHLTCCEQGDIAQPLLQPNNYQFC
# Description: as §1
# KDR/VEGFR2 = target: T8, KDR/VEGFR2 (Homo sapiens, UniProt P35968); assay: Hot-Spot kinase profiling; assay type: biochemical
# T8 construct: purchased Reaction Biology Corp. (Malvern PA, USA)
# T8 sequence (P35968 20-1356): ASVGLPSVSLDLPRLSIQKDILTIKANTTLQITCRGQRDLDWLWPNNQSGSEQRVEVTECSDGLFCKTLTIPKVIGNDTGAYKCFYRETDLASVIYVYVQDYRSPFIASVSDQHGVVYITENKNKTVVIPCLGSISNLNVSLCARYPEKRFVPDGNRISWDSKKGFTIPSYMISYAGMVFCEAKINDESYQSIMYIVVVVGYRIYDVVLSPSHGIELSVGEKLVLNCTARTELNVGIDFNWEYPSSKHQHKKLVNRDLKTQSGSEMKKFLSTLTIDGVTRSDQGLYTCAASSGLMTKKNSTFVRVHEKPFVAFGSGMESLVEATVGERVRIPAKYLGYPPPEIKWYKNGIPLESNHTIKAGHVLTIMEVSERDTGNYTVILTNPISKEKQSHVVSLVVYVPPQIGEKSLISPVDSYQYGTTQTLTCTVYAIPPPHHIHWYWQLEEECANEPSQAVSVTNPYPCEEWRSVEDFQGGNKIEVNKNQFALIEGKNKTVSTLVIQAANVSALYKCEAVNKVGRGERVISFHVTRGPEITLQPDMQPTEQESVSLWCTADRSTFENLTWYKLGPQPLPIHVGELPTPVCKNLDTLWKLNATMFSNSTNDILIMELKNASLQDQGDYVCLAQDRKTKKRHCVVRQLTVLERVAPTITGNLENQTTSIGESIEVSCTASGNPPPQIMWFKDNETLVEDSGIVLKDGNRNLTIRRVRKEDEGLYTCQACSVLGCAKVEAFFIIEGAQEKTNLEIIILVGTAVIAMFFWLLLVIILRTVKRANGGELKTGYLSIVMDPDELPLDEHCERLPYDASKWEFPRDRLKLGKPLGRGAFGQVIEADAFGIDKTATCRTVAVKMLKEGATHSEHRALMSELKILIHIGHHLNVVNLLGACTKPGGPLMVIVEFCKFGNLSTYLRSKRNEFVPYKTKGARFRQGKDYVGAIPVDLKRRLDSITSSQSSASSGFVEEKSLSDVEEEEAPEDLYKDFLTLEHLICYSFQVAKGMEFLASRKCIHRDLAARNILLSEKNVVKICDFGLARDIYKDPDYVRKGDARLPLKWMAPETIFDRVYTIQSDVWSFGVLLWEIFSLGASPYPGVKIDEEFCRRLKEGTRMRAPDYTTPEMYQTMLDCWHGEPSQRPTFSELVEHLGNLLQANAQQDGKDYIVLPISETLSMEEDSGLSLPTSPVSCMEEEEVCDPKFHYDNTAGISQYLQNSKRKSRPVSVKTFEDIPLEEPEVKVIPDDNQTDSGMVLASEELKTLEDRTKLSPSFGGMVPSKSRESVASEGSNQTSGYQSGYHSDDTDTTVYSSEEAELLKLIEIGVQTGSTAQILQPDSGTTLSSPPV
# Description: as §1
# FLT3 mutants = assay: Hot-Spot kinase profiling, FLT3 mutants together; assay type: biochemical; conditions: eight FLT3 mutants, bound for all; read-out: IC50 against FLT3 mutants
# Description: as §1
# [1] = test system: phosphorylation of the FLT3; assay: Western blot, phosphorylation of FLT3 in MV4-11 cells; assay type: cell-based, human; conditions: MV4-11, 4 h, 1 μM; dose-dependent, more potent than sorafenib
# Description: Analysis of pFLT3, pSTAT5, pERK, pAKT, and pRb in vitro: to determine the levels of pFLT3, pSTAT5, pERK, pAKT, and pRb, cells were seeded in a 6-well cell culture plate at a density of 400,000 cells per well for MV4-11 in a total volume of 1800 μL and incubated overnight in medium containing 10% fetal bovine serum (Life Technologies, Rockville, MD, USA). Then 200 μL of serially diluted compounds were added to each well the next day. Cell lysates were harvested after 4 h and pFLT3, pSTAT5, pERK, pAKT, or pRb were quantified using assay kits for FLT3/Phospho-FLT3Tyr589/591, pSTAT5 (Tyr694)/total STAT5, pRb (Ser807)/total Rb (Nanjin keyGen Biotech Company, Nanjing, China) following the manufacturer’s protocols.
structure (smiles),measurement,setting,value
O=C(Nc1ccc(N2CCNCC2)cc1)c1n[nH]cc1Nc1ncnc2sc3c(c12)CCC3 [Compound 8t],IC50,CDK2,0.719 ± 0.064 nM
same,IC50,FLT3,0.089 ± 0.013 nM
same,IC50,MV4-11,1.22 ± 0.06 nM
same,remaining activity at 0.15 µM,Aurora B,55.3%
same,remaining activity at 0.15 µM,"CDK9/cyclin K; 0.15 μM, read-out: % Enzyme Activity (Relative to DMSO Controls) CDK9/cyclin K",7.2%
same,IC50,CDK9/cyclin K; Table 5 kinase profiling,14.2 ± 0.82 nM
same,remaining activity at 0.15 µM,"FLT1/VEGFR1; 0.15 μM, read-out: % Enzyme Activity (Relative to DMSO Controls) FLT1/VEGFR1",6.08%
same,IC50,FLT1/VEGFR1; Table 5 kinase profiling,12.4 ± 0.19 nM
same,remaining activity at 0.15 µM,"FLT3 (D835Y); 0.15 μM, read-out: % Enzyme Activity (Relative to DMSO Controls) FLT3 (D835Y)",0.27%
same,IC50,FLT3 (D835Y); Table 5 kinase profiling,0.75 ± 0.04 nM
same,IC50,FLT3 (ITD)-F691L,0.6 ± 0.01 nM
same,remaining activity at 0.15 µM,FMS,63%
same,remaining activity at 0.15 µM,"KDR/VEGFR2; 0.15 μM, read-out: % Enzyme Activity (Relative to DMSO Controls) KDR/VEGFR2",7.29%
same,IC50,KDR/VEGFR2; Table 5 kinase profiling,8.32 ± 0.54 nM
same,IC50,FLT3 mutants,< 5 nM
same,phosphorylation of the FLT3,[1],eliminated
